Measurements from patent US8193213B2, “Spermicidal and/or antifungal composition and methods of using the same” (priority 2003, dated 2012).
Marks after values point to notes of the source that are not given here.

Columns and labels:
[1] = tested on: Aspergillus fumigatus; assay: Antifungal susceptibility testing (NCCLS, MIC/MFC) against A. fumigatus; type: cell-based; design: Lowest [Active]: unit not given here; conditions: for Lowest MIC / Lowest MFC: A. fumigatus; for Lowest MIC: lowest concentration that appears to have no growth; for Lowest MFC: lowest concentration that kills >= 98% of the cells in the well; for CFU for MFC at 100 / CFU for MFC at 200 / CFU for MFC at 300 / Lowest [Active]: A. fumigatus (48 hours); for CFU for MFC at 100: concentration 100; for CFU for MFC at 200: concentration 200; for CFU for MFC at 300: concentration 300; for Lowest [Active]: concentrations 300, 200, 100, unit not given, N/A = no active concentration
Method: (§1) Antifungal susceptibility testing was performed following the NCCLS guidelines with minor modifications. Briefly, a suspension of Candida albicans cells was prepared from pure cultures grown overnight on yeast-malt extract (YM) agar at 35° C. Several small colonies were removed from a YM agar plate and transferred to 5 ml of 0.85% saline. The cells were suspended by 15 seconds of vortexing and the cell density of the resulting suspension was determined using a spectrophotometer. The cell density was adjusted by addition of 0.85% saline until the transmittance matched that of a 0.5 McFarland standard when measured at a wavelength of 530 nm. An aliquot of this suspension was diluted 1:1000 in RPMI-MOPS to yield a working suspension. A similar suspension of Aspergillus fumigatus spores was obtained by using spores stored at […] in 0.85% saline. These spores were diluted in 0.85% saline to match the McFarland standard transmittance. This suspension was then further diluted 1:50 in RPMI-MOPS to produce the working inoculum suspension.
(§2) Dilution series of the test compounds were made in RPMI-MOPS containing 2% DMSO. An aliquot of each dilution was added in duplicate to the wells of a sterile 96-well, flat bottom microtiter plate. Then, an aliquot of either the C. albicans cell suspension or the A. fumigatus spore suspension were added to each well for a final volume of 200 μl. The plates were then incubated at […]. […] A similar determination was made for the A. fumigatus plates after 48 hours. […] The numbers of colony forming units (CFU) were counted and these values used to calculate the percent survival of cells or spores in inocula relative to the number of CFUs in the working inoculum suspension. The minimum fungicidal concentration (MFC) was the lowest concentration of test compound with a percent survival of less than 2%.

[2] = tested on: Candida albicans; assay: Antifungal susceptibility testing (NCCLS, MIC/MFC) against C. albicans; type: cell-based; design: Lowest [Active]: unit not given here; conditions: for Lowest MIC: lowest concentration that appears to have no growth; for CFU for MFC at 200 / CFU for MFC at 300 / Lowest [Active] / CFU for MFC at 100: C. albicans (19 hours); for CFU for MFC at 200: concentration 200; for CFU for MFC at 300: concentration 300; for Lowest [Active]: concentrations 300, 200, 100, unit not given, N/A = no active concentration; for CFU for MFC at 100: concentration 100; for Lowest MFC: lowest concentration that kills >= 98% of the cells in the well
Method: as §1, §2

[3] = tested on: adult male Swiss mice; assay: Antispermatogenic screen: single gavage dose to male mice, testes weight and Spermatogenic Index at 72 h; type: in vivo; conditions: day 3 (72 h)
Method: The compounds of the invention were tested in mice for their effects on spermatogenesis three days after a single oral dose by the procedure described in Cook et al (1995) below. Compounds active in this test have been shown also to be anti-fertility compounds.
Compounds were screened for antispermatogenic activity by dosing male mice on day 1 with a gavage dose of control vehicle, positive control (compound 1) or compound of the invention. At 72 h after dosing, animals were killed and the testes were excised, trimmed of fat, and weighed. One testis was examined histologically and rated for spermatogenic potential using the Spermatogenic Index (J. M. Whitsett, P. F. Noden, J. Cherry and A. D. Lawton, J. Reprod. Fertil., 72, 277 (1984), which is a semiquantitative estimate of the sperm producing ability of the testes The index is based on histological appearance of the spermatogenic cells in the seminiferous tubules. A scale of 1 to 6 is used with 5 to 6 being the normal status. A second assessment was based on the weight of the testes.
Tables 1 and 2 show pertinent biological results in terms of the change in testes weight (TW) and spermatogenic index (SI) relative to a control containing only the administration vehicle, but no indenopyridine. In Tables 1 and 2, R^3 and R^4 refer to structures Ib, where R^3 is in the para position; R^1 is ethyl; R^2 is methyl; and R^5 is hydrogen.

[4] = racemic compounds, 1 mg/kg single gavage dose, vehicle 90% water, 7% Tween20, 3% ethanol
[5] = racemic compounds, 3 mg/kg single gavage dose, vehicle 90% water, 7% Tween20, 3% ethanol
[6] = racemic compounds, 10 mg/kg single gavage dose, vehicle 90% water, 7% Tween20, 3% ethanol
[7] = Table 2, 0.3 mg/kg single gavage dose, vehicle 1% Tween20 in water
[8] = Table 2, 1 mg/kg single gavage dose, vehicle 1% Tween20 in water
[9] = Table 2, 3 mg/kg single gavage dose, vehicle 1% Tween20 in water
[10] = Table 2, 10 mg/kg single gavage dose, vehicle 1% Tween20 in water
[11] = Table 2, 30 mg/kg single gavage dose, vehicle 1% Tween20 in water

## CCN1CCC2C(C1)c1ccc(C)cc1C2c1ccc(C)cc1.Cl (stereo not shown) [Compound 4587-002d]
[1]
  Lowest MIC: 50 µg/mL
  Lowest MFC: 50 µg/mL
[2]; C. albicans
  Lowest MFC (class word): fungistatic (Fungistatic = compound with an MIC, but <98% of cells killed)
  Lowest MIC: 50 µg/mL

## CCN1CCC2C(C1)c1ccc(C)cc1C2c1ccc(OC)cc1.Cl (racemic) [Compound 4587-029]
[1]
  CFU for MFC at 100: Cidal (Cidal = >98% killed)
  CFU for MFC at 200: Cidal (Cidal = >98% killed)
  CFU for MFC at 300: Cidal (Cidal = >98% killed)
  Lowest [Active]: 100
[2]
  CFU for MFC at 200: Static (Static = well looked clear, but <98% killed)
  CFU for MFC at 300: Cidal (Cidal = >98% killed)
  Lowest [Active]: 200

## CCN1CCC2=C(c3ccc(OC)cc3)c3cc(C)ccc3C2C1.Cl (stereo not shown) [Compound 4587-082]
[1]
  Lowest MIC: 100 µg/mL
  Lowest MFC: 100 µg/mL
[2]; C. albicans
  Lowest MIC: >100 µg/mL

## C[C@@H]1[C@H](O)[C@@H](C)/C=C/C=C/C=C/C=C/C=C/C=C/C=C/[C@H](O[C@@H]2O[C@H](C)[C@@H](O)[C@H](N)[C@@H]2O)C[C@@H]2O[C@](O)(C[C@@H](O)C[C@@H](O)[C@H](O)CC[C@@H](O)C[C@@H](O)CC(=O)O[C@H]1C)C[C@H](O)[C@H]2C(=O)O [AMP B, reference compound]
[1]
  Lowest MIC: 2 µg/mL
[2]; C. albicans
  Lowest MIC: 0.5 µg/mL

## CCN1CCC2C(C1)c1cc(I)c(C)cc1C2c1ccc(C(=O)OC)cc1.Cl (stereo not shown) [Compound 4587-073d]
[1]
  CFU for MFC at 100: Cidal (Cidal = >98% killed)
  CFU for MFC at 200: Cidal (Cidal = >98% killed)
  CFU for MFC at 300: Cidal (Cidal = >98% killed)
  Lowest [Active]: 100
[2]
  CFU for MFC at 100: Static (Static = well looked clear, but <98% killed)
  CFU for MFC at 200: Cidal (Cidal = >98% killed)
  CFU for MFC at 300: Cidal (Cidal = >98% killed)
  Lowest [Active]: 100

## CCN1CCC2C(C1)c1ccccc1C2c1ccccc1.Cl (racemic) [Compound 4587-037]
[1]
  CFU for MFC at 200: Cidal (Cidal = >98% killed)
  CFU for MFC at 300: Static* (Static = well looked clear, but <98% killed)
  Lowest [Active]: 200
[2]
  CFU for MFC at 300: Cidal (Cidal = >98% killed)
  Lowest [Active]: 300

## CCN1CCC2C(C1)c1ccc(C)cc1C2c1ccc(CO)cc1.Cl (racemic) [Compound 4587-055]
[2]
  CFU for MFC at 300: Static (Static = well looked clear, but <98% killed)
  Lowest [Active]: 300

## CCN1CC[C@@H]2[C@@H](c3ccc(C(=O)O)cc3)c3cc(C)c(Cl)cc3[C@@H]2C1.Cl (racemic) [Compound 20, (4aRS,5SR,9bRS)-2-Ethyl-8-Chloro-7-Methyl-2,3,4,4a,5,9b-Hexahydro-5-(4-carboxylphenyl)-1H-Indeno[1,2-c]pyridine Hydrochloride]
[3]; [4]
  SI change (%) (Spermatogenic Index, % change from vehicle control): −55%*
  TW change (%) (testes weight, % change from vehicle control): −16%
[3]; [5]
  SI change (%) (Spermatogenic Index, % change from vehicle control): −66%*
  TW change (%) (testes weight, % change from vehicle control): −23%
[3]; [6]
  SI change (%) (Spermatogenic Index, % change from vehicle control): −72%*
  TW change (%) (testes weight, % change from vehicle control): −22%

## CCCOC(=O)c1ccc(C2c3cc(C)ccc3C3CN(CC)CCC32)cc1.Cl (racemic) [Compound 4587-062]
[1]
  Lowest MIC: 10 µg/mL
  Lowest MFC: 10 µg/mL
[2]; C. albicans
  Lowest MIC: 20 µg/mL
  Lowest MFC: 20 µg/mL

## CCN1CCC2C(C1)c1cc(I)c(C)cc1C2c1ccc(C(=O)OC)cc1 (single isomer, unassigned) [18 (l)]
[3]; [7]
  SI change (%) (Spermatogenic Index, % change from vehicle control): −34%*
  TW change (%) (testes weight, % change from vehicle control): −11%*
[3]; [8]
  SI change (%) (Spermatogenic Index, % change from vehicle control): −66%*
  TW change (%) (testes weight, % change from vehicle control): −21%*
[3]; [9]
  SI change (%) (Spermatogenic Index, % change from vehicle control): −71%*
  TW change (%) (testes weight, % change from vehicle control): −27%*
[3]; [10]
  SI change (%) (Spermatogenic Index, % change from vehicle control): −72%*
  TW change (%) (testes weight, % change from vehicle control): −31%*

## CCN1CCC2=C(c3ccc(C)cc3)c3cc(C)ccc3C2C1.Cl (racemic) [Compound 4587-040]
[1]
  CFU for MFC at 100: Cidal (Cidal = >98% killed)
  CFU for MFC at 200: Cidal (Cidal = >98% killed)
  CFU for MFC at 300: Cidal (Cidal = >98% killed)
  Lowest [Active]: 100
[2]
  CFU for MFC at 100: Cidal (Cidal = >98% killed)
  CFU for MFC at 200: Cidal (Cidal = >98% killed)
  CFU for MFC at 300: Cidal (Cidal = >98% killed)
  Lowest [Active]: 100

## CCN1CCC2C(C1)c1ccc(C)cc1C2c1ccc(C)cc1.Cl (stereo not shown) [Compound 4587-002l]
[1]
  Lowest MIC: 50 µg/mL
  Lowest MFC: 75 µg/mL
[2]; C. albicans
  Lowest MIC: 75 µg/mL
  Lowest MFC: 100 µg/mL

## CCN1CC[C@@H]2[C@@H](c3ccc(C(=O)O)cc3)c3cc(C)c(I)cc3[C@@H]2C1.Cl (racemic) [Compound 17, (4aRS,5SR,9bRS)-2-Ethyl-2,3,4,4a,5,9b-hexahydro-8-iodo-7-methyl-5-(4-carboxyphenyl)-1H-indeno[1,2-c]pyridine Hydrochloride]
[3]; [4]
  SI change (%) (Spermatogenic Index, % change from vehicle control): −67%*
  TW change (%) (testes weight, % change from vehicle control): −18%
[3]; [5]
  SI change (%) (Spermatogenic Index, % change from vehicle control): −66%*
  TW change (%) (testes weight, % change from vehicle control): −9%
[3]; [6]
  SI change (%) (Spermatogenic Index, % change from vehicle control): −76%*
  TW change (%) (testes weight, % change from vehicle control): −32%*

## CCc1ccc2c(c1)[C@@H](c1ccc(C(=O)OC)cc1)[C@@H]1CCN(CC)C[C@H]21.Cl (racemic) [Compound 4587-064]
[1]
  CFU for MFC at 100: Cidal (Cidal = >98% killed)
  CFU for MFC at 200: Cidal (Cidal = >98% killed)
  CFU for MFC at 300: Cidal (Cidal = >98% killed)
  Lowest [Active]: 100
  Lowest MIC: 50 µg/mL
  Lowest MFC: 75 µg/mL
[2]
  CFU for MFC at 100: Static (Static = well looked clear, but <98% killed)
  CFU for MFC at 200: Cidal (Cidal = >98% killed)
  CFU for MFC at 300: Cidal (Cidal = >98% killed)
  Lowest [Active]: 100
[2]; C. albicans
  Lowest MIC: 100 µg/mL
  Lowest MFC: 100 µg/mL

## CCN1CC[C@@H]2[C@@H](c3ccc(C(=O)OC)cc3)c3cc(C)ccc3[C@@H]2C1.Cl (single isomer, unassigned) [3 (l), (1)-Enantiomer of (4aRS,5SR,9bRS)-2-Ethyl-2,3,4,4a,5,9b-hexahydro-7-methyl-5-(4-carbomethoxyphenyl)-1H-indeno[1,2-c]pyridine Hydrochloride]
[3]; [8]
  SI change (%) (Spermatogenic Index, % change from vehicle control): 3%
  TW change (%) (testes weight, % change from vehicle control): 8%
[3]; [9]
  SI change (%) (Spermatogenic Index, % change from vehicle control): −2%
  TW change (%) (testes weight, % change from vehicle control): −12%
[3]; [10]
  SI change (%) (Spermatogenic Index, % change from vehicle control): −33%*
  TW change (%) (testes weight, % change from vehicle control): −13%
[3]; [11]
  SI change (%) (Spermatogenic Index, % change from vehicle control): −64%*
  TW change (%) (testes weight, % change from vehicle control): −30%*

## CCN1CCC2C(C1)c1ccc(C)cc1C2c1ccc(C#N)cc1.Cl (racemic) [Compound 4587-060]
[1]
  CFU for MFC at 200: Cidal (Cidal = >98% killed)
  Lowest [Active]: 200

## CCN1CCC(C(c2ccc(C)cc2)c2cccc(C)c2)CC1.Cl (stereo not shown) [Compound 4587-006]
[2]
  CFU for MFC at 300: Static (Static = well looked clear, but <98% killed)
  Lowest [Active]: 300
